Assays:
[1] = target: Cyclin-dependent kinase 2 (Homo sapiens, UniProt P24941); assay: Inhibition of CDK2
[2] = target: Cyclin-dependent kinase 1 (Homo sapiens, UniProt P06493); assay: Inhibition of CDC2
[3] = target: Cyclin-dependent kinase 4 (Homo sapiens, UniProt P11802); assay: Inhibition of CDK4
[4] = Inhibition of MAPK

Chain of Cyclin-dependent kinase 4 (P11802 whole entry): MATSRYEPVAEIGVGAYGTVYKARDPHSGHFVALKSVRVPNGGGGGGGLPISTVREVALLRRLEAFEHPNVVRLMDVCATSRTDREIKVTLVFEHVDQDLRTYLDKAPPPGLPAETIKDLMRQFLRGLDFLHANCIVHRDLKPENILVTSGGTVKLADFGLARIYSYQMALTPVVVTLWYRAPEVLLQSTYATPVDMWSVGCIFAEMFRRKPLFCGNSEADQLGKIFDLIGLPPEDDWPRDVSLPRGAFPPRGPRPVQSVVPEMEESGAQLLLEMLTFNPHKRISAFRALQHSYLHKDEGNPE
Chain of Cyclin-dependent kinase 1 (P06493 whole entry): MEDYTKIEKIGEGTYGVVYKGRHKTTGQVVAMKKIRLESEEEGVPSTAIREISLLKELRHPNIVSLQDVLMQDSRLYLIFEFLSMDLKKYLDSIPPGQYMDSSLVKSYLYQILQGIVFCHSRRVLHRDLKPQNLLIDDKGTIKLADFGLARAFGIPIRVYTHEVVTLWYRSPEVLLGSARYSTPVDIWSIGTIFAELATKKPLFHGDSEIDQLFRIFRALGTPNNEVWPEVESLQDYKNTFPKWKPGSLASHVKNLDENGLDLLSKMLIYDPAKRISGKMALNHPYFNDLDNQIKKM

SMILES	IC50 [1] [nM]	IC50 [2] [nM]	IC50 [3] [nM]	IC50 [4] [nM]
O=C1Nc2cc3c(O[C@@H]4O[C@H](CO)[C@@H](O)[C@H](O)[C@H]4O)cccc3c3c4c(cc1c23)OCO4	> 10000			
COc1c(O)cc2c3c(cc4ccc(O)cc4c13)NC2=O [ARISTOLACTAM AIIIA]	140	214	1420	35300
